Reference: patent US6815447B2, “N-type calcium channel antagonists for the treatment of pain” (Astrazeneca AB, priority 2000, dated 2004)

Biological target: N-type calcium channel (Homo sapiens, UniProt Q00975)
Assay: N-channel FLIPR assay (inhibition of K+-evoked calcium flux in neuronally differentiated IMR32 cells)
Type: cell-based
Settings: 80 mM K+ stimulus, read-out: IC50 for the N-type calcium channel, as measured by the FLIPR assay

N-type calcium channel, sequence (Q00975 whole entry): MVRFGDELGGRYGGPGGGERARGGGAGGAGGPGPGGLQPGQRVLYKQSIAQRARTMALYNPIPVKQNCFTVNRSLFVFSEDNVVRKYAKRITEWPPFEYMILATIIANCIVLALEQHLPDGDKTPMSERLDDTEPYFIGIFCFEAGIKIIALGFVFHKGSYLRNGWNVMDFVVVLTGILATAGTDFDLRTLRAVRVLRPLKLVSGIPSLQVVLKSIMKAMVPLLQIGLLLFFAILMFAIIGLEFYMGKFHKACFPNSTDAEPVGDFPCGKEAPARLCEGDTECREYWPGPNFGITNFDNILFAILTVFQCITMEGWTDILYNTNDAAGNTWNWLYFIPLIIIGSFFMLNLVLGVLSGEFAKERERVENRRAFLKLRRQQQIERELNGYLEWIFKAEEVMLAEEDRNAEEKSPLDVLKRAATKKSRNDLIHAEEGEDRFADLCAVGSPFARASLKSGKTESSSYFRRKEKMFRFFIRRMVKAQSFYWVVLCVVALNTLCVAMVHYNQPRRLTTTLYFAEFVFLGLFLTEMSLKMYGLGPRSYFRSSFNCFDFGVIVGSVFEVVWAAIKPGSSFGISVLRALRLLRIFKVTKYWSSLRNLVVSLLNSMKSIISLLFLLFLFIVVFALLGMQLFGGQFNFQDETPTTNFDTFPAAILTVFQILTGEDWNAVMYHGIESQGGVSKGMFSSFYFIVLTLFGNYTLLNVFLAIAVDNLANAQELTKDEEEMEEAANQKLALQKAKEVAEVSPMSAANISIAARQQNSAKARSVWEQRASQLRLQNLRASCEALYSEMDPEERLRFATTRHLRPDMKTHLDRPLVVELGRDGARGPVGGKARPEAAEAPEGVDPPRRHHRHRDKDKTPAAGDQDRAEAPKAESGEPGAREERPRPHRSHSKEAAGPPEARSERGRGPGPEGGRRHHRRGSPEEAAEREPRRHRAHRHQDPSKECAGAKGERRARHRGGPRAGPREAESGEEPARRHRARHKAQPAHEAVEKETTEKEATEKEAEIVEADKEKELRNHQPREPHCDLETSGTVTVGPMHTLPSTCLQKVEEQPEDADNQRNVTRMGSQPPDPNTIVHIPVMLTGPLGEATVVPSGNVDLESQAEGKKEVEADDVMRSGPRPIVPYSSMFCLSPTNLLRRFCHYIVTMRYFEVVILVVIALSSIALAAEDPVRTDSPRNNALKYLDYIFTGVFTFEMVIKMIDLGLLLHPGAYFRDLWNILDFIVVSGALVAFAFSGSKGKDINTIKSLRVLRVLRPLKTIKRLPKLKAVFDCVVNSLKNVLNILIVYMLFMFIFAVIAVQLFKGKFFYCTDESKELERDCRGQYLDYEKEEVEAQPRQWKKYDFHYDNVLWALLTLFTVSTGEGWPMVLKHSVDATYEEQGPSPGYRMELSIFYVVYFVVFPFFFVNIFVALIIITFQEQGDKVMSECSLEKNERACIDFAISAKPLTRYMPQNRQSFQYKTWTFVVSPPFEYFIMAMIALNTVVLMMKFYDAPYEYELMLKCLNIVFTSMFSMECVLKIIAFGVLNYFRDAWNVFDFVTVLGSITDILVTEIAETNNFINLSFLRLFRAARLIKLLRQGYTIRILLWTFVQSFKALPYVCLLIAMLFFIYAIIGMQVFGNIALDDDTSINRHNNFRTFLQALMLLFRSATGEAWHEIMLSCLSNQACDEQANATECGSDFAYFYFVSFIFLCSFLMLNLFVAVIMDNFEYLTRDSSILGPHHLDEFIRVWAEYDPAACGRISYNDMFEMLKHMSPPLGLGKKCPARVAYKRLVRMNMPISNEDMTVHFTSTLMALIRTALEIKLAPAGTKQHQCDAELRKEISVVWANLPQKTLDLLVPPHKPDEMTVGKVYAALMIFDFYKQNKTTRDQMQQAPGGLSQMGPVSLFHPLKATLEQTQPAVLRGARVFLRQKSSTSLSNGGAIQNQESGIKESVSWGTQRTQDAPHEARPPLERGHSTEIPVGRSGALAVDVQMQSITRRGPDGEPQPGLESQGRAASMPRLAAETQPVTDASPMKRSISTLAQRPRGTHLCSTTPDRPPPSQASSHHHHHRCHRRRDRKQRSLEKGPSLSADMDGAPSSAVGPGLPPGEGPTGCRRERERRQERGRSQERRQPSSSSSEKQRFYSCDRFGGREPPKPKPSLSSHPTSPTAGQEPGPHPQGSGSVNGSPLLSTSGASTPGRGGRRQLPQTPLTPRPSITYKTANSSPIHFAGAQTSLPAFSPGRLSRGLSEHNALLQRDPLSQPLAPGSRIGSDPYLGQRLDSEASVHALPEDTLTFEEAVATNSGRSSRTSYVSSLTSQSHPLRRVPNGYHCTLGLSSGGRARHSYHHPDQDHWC
N-type calcium channel, sequence (P54284 whole entry partner): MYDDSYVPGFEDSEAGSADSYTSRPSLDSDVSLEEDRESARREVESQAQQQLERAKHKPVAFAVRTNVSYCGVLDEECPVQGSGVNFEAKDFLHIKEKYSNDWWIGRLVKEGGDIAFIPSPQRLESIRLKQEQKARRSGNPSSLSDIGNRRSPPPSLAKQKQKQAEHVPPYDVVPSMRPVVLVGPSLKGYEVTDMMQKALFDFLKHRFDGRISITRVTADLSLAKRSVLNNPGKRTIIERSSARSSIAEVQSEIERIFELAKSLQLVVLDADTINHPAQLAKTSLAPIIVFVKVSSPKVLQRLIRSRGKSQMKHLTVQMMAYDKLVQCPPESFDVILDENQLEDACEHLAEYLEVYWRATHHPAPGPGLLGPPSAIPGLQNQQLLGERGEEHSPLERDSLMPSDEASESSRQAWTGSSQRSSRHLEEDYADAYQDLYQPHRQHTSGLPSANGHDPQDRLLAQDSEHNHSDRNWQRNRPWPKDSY
N-type calcium channel, sequence (P54289 25-956 partner limits assumed): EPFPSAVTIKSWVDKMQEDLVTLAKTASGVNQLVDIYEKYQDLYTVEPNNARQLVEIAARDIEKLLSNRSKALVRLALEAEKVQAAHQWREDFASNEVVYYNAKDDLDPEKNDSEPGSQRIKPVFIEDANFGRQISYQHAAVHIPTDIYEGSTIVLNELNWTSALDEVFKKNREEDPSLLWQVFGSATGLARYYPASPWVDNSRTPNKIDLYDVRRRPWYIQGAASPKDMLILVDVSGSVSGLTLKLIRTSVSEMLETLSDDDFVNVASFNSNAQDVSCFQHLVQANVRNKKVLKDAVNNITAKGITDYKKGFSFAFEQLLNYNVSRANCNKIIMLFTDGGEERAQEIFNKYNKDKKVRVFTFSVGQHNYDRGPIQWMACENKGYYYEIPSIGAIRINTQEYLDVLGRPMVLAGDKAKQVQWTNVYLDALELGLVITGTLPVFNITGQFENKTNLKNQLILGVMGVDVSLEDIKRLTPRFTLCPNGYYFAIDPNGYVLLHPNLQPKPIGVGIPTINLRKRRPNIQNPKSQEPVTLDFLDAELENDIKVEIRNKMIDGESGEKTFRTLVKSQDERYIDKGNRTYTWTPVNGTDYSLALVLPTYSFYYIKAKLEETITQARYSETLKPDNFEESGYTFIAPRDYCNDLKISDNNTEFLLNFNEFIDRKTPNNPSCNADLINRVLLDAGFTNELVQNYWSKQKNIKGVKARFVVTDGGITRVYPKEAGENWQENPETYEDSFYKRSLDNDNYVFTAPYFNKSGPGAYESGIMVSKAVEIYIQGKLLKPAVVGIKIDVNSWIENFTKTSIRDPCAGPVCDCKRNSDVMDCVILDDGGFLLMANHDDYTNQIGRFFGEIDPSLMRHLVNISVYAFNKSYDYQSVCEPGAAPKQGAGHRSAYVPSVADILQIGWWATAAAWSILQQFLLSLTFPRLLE
N-type calcium channel, sequence (P54289 957-1103 partner limits assumed): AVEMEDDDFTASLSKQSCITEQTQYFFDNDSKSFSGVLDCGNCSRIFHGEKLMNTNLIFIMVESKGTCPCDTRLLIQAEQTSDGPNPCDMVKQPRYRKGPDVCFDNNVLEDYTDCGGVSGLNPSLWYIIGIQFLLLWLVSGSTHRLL

Row | SMILES | IC50 [µM]
1 | Cc1cc(N)c2cc(Nc3cc(-c4ccccc4F)nc(N)n3)ccc2n1 [Example 66, N6-[2-Amino-6-(2-fluoro-phenyl)-pyrimidin-4-yl]-2-methyl-quinoline-4,6-diamine] | 2.37
2 | COc1ccccc1-c1cc(Nc2ccc3nc(-c4ccccc4)cc(N)c3c2)nc(N)n1 [Example 75, N6-[2-Amino-6-(2-methoxy-phenyl)-pyrimidin-4-yl]-2-phenyl-quinoline-4,6-diamine] | 10.5
3 | Cc1cc(N)c2cc(Nc3cc(-c4cccc(F)c4)nc(N)n3)ccc2n1 [Example 74, N6-[2-Amino-6-(3-fluoro-phenyl)-pyrimidin-4-yl]-2-methyl-quinoline-4,6-diamine] | 3.56
4 | Nc1nc(Nc2ccc3nc(-c4ccccc4)cc(N)c3c2)cc(C(F)(F)F)n1 [Example 4, N6-(2-Amino-6-trifluoromethyl-pyrimidin-4-yl)-2-phenyl-quinoline-4,6-diamine] | 3.57
